Experimental data taken from ChEMBL document CHEMBL5653631, “A Potent and Selective ULK1 Inhibitor Suppresses Autophagy and Sensitizes Cancer Cells to Nutrient Stress” (iScience, 2018).
Values belong to the compound of their own block, whether it stands above or below them.

What was measured:
[1] = biological target: T1, Myotonin-protein kinase (Homo sapiens) (UniProt Q09013); experiment: Inhibition of human recombinant DMPK1 at 500 nM in presence of ATP by radiometric assay relative to control
T1 sequence (whole entry): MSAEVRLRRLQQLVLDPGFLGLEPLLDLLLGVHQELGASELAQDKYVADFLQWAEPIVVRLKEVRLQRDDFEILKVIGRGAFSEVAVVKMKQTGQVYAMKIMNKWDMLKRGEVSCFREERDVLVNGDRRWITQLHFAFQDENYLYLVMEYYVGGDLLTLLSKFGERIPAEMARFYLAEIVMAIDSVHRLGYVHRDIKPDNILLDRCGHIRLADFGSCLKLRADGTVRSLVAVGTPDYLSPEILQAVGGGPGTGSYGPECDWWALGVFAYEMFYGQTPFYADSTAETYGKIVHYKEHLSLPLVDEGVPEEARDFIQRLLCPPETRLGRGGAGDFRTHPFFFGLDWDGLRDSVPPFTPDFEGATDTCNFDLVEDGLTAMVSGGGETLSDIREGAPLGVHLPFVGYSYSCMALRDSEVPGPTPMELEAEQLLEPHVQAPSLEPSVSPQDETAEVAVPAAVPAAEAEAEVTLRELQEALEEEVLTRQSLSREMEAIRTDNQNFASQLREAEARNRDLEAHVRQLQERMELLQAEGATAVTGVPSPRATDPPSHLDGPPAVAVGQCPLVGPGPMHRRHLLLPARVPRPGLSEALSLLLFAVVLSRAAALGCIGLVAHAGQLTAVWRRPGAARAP

[2] = biological target: T2, Serine/threonine-protein kinase PLK4 (Homo sapiens) (UniProt O00444); experiment: Inhibition of human recombinant PLK4 at 15 nM in presence of ATP by radiometric assay relative to control
T2 sequence (whole entry): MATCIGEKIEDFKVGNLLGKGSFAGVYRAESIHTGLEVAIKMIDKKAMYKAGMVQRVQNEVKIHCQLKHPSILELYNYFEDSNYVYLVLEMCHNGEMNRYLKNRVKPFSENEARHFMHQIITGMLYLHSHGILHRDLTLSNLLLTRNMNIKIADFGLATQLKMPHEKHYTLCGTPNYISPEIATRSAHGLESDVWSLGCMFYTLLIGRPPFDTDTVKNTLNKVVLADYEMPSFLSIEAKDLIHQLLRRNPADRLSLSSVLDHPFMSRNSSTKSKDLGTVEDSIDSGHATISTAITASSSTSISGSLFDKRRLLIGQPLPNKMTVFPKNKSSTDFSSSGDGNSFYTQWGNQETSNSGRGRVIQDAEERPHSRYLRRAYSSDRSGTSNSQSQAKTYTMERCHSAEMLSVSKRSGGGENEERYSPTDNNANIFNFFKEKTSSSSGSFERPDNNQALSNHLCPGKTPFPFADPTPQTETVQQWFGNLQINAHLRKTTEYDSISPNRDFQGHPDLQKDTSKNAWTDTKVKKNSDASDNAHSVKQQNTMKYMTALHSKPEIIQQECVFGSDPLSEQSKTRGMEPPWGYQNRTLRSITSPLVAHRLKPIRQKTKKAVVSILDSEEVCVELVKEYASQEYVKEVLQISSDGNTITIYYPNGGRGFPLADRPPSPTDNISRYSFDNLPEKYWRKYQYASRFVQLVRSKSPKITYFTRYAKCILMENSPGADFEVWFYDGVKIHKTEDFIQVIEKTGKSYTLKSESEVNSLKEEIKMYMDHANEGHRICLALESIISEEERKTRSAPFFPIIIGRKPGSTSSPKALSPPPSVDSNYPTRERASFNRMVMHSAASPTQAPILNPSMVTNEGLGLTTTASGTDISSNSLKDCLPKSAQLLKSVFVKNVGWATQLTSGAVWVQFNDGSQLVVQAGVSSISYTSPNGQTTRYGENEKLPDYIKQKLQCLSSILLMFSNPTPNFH

[3] = biological target: Tau-tubulin kinase 1 (Homo sapiens) (UniProt Q5TCY1); experiment: Inhibition of human recombinant TTBK1 at 15 nM in presence of ATP by radiometric assay relative to control
Chain of Tau-tubulin kinase 1 (Homo sapiens) (Q5TCY1 whole entry): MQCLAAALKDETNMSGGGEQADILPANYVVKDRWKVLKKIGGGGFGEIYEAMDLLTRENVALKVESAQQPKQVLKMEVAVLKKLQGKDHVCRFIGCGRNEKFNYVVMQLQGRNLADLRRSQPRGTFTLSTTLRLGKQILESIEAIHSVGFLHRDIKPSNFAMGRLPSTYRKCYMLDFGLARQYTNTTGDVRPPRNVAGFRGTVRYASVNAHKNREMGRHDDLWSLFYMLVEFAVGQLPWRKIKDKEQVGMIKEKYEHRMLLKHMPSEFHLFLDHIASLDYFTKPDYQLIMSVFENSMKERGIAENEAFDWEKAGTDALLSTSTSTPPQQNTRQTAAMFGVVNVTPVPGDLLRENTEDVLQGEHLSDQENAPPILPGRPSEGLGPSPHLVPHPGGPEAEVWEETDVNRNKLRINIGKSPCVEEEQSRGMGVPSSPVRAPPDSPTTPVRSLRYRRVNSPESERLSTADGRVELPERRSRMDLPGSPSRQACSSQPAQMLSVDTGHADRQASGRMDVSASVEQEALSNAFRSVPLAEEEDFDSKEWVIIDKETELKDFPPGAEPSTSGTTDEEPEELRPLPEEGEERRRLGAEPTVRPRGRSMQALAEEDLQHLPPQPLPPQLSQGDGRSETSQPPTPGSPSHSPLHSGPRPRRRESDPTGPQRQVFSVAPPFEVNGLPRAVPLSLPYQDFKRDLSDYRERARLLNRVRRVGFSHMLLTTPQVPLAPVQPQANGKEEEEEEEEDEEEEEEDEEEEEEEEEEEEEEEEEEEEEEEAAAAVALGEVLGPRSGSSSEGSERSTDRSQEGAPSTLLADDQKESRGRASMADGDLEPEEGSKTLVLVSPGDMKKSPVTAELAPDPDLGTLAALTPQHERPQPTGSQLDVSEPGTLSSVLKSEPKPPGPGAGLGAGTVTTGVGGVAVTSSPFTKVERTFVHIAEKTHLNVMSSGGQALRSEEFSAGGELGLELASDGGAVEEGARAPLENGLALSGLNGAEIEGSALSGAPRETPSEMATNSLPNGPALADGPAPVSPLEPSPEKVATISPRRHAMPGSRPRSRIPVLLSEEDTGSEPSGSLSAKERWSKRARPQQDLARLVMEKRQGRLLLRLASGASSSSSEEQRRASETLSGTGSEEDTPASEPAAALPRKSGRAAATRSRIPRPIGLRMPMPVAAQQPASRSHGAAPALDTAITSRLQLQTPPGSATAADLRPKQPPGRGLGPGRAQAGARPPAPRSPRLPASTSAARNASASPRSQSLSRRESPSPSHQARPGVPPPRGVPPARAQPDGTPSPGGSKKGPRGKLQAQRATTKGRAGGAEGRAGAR

[4] = biological target: T3, Eukaryotic elongation factor 2 kinase (Homo sapiens) (UniProt O00418); experiment: Inhibition of human recombinant eEF2K at 15 nM related to control ULK1
T3 sequence (whole entry): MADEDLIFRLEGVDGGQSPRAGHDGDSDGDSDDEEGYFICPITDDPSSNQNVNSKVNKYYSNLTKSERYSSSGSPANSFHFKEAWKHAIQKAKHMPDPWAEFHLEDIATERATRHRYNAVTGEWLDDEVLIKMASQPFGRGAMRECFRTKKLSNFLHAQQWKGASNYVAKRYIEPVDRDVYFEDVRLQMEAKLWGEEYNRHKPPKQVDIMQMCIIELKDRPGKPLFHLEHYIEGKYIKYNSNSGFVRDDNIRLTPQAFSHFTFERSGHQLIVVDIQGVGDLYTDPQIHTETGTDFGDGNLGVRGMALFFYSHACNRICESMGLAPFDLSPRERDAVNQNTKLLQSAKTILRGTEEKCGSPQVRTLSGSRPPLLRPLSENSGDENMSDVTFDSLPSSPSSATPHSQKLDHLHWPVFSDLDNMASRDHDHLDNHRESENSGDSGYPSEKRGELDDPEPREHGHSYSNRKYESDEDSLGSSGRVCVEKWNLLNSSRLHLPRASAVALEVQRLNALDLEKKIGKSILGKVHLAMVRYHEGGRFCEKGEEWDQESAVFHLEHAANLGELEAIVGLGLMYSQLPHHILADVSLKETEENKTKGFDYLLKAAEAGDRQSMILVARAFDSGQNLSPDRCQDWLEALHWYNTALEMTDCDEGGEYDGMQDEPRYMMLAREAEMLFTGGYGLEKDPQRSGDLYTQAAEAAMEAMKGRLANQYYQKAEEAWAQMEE

[5] = biological target: Transcription initiation factor TFIID subunit 1-like (Homo sapiens) (UniProt Q8IZX4); experiment: Inhibition of human recombinant TAF1L at 40 nM in presence of ATP by radiometric assay relative to control
Chain of Transcription initiation factor TFIID subunit 1-like (Homo sapiens) (Q8IZX4 whole entry): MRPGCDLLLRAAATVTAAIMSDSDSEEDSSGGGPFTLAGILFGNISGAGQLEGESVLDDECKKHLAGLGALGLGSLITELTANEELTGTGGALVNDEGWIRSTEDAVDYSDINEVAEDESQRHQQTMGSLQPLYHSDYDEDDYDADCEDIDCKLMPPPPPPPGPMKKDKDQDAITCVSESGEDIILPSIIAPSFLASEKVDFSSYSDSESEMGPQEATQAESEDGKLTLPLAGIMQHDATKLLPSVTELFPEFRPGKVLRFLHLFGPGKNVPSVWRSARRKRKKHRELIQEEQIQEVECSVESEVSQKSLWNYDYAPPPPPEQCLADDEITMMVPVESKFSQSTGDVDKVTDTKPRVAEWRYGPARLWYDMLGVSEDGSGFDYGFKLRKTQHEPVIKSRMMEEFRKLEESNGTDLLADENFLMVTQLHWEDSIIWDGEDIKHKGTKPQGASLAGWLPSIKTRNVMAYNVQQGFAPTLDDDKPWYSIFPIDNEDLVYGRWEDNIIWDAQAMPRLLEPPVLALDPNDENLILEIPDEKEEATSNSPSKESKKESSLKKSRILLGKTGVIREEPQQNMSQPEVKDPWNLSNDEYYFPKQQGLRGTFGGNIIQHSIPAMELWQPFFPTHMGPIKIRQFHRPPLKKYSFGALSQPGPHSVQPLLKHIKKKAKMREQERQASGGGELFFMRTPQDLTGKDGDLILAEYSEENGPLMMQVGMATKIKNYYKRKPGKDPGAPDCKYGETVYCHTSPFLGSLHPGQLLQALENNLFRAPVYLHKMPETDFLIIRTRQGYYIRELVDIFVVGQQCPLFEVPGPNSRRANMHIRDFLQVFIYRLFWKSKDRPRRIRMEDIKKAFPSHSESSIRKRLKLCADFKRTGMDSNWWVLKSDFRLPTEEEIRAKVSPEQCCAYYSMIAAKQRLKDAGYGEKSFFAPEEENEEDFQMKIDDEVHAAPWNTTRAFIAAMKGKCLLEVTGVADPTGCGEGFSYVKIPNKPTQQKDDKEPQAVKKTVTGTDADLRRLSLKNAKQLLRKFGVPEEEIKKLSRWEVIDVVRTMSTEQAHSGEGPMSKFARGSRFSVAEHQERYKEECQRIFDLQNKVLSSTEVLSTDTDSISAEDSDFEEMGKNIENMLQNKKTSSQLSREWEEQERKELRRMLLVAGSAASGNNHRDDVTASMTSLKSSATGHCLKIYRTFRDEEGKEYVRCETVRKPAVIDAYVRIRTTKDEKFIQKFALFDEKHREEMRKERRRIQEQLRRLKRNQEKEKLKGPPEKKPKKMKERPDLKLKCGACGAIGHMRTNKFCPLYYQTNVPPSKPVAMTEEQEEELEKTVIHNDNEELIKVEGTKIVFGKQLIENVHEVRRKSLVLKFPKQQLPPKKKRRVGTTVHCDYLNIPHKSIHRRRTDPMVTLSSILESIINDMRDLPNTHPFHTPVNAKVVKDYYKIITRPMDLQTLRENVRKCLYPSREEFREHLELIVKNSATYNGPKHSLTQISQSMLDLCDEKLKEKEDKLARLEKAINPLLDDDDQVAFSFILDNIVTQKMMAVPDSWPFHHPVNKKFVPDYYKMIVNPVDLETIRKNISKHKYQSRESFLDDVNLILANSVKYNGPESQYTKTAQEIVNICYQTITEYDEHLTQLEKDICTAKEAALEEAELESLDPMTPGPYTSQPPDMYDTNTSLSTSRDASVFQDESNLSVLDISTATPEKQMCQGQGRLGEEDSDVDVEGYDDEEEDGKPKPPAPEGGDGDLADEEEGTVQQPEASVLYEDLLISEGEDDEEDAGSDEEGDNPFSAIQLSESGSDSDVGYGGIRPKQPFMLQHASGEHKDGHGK

inhibition [1]: 0%
SMILES: CNC(=O)c1ccccc1Oc1nc(Nc2cc(OC)c(OC)c(OC)c2)ncc1Br

inhibition [2]: 31%
inhibition [3]: 0%
fold change (FC) [4]: 0.11
SMILES: CC(C)[C@H](NC(=O)c1cc(-c2cnn3cc(-c4ccc(OCCN5CCCCC5)cc4)cnc23)cs1)C(F)(F)F

inhibition [5]: 47%
SMILES: O=C(N[C@@H](C1CC1)C(F)(F)F)c1cc(-c2cnn3cc(-c4ccc(F)cc4)cnc23)cs1
